From patent publication EP3521435A1, “A HIGH STRINGENCY SELECTION SYSTEM FOR PROTEIN EXPRESSION IN PROLINE-AUXOTROPHIC CELLS” (Bayer AG, priority 2018, dated 2019)
Read-outs that look alike come from different tables or passages of the source.

Key:
[1] = tested on: CHO-K1 cells; test: Cell viability post-transfection of transfected cell populations under selection conditions; format: cell-based, Chinese hamster; details: for concentration at which recovery kinetics were affected: Table 8
Method: (§1) To efficiently test the impact of different procedures on improving selection stringency, experimental testing in stable cell populations was performed. As test molecules, enhanced green fluorescent protein (GFP) as well as a human IgG1 were chosen. CHO-K1 cells adapted to growth in suspension in defined medium were obtained from SAFC and cultivated in EX-CELL CD CHO Fusion medium (SAFC 14365C). Custom-made EX-CELL CD CHO Fusion medium without L-Proline (Pro) and without L-Ornithine (Orn) ("proline-free medium") was obtained from SAFC. The expression vector system was based on modified versions of "CET 1019 AS-puro-SceI" and "CET 1019 AD-puro-SceI" for GFP and human IgG1, respectively, from Merck-Millipore, containing the Puromycin selection marker (Puromycin N-acetyl-transferase) known to exert a high selection stringency. To minimize variations in cell populations derived from using different transfections or different vectors, the first series of experiments were conducted using vectors into which a P5CS expression cassette was cloned upstream of a UCOE element, in addition to the Puromycin selection marker present downstream of a gene of interest. This way, it was possible to pool different transfections using the same vector to obtain a common starting point, and split the mixture according to different selection conditions, minimizing any variations that are not due to selection conditions themselves. Expression of long and short isoform of murine P5CS (Protein: Delta-1-pyrroline-5-carboxylate synthase; Gene: Aldh18a1; UniProtKB accession number: Q9Z110-1 & Q9Z110-2) was driven by a SV40 promoter. A SV40 polyadenylation sequence was used at the 3' end of the gene. More details can be found in Table 1. Typically, CHO cells were cultivated in EX-CELL CD CHO Fusion medium containing 6 mM GlutaMAX (Thermo Fisher, 35050-38) ("CD-Fusion medium") at 37 °C with 5% CO2. Cells were grown to logarithmic phase under shaking conditions for transfections. 1e7 cells/cuvette were transfected using nucleofection (Amaxa Nucleofector II, following the manufacturer's recommendations) with 5 µg of linearized DNA. After transfection, cells were taken up in 1 ml medium and transferred into 1 well of a 6 well microtiter plate (MTP) already containing 1 ml medium. The cells were incubated for 24 h without shaking, after which 9 ml medium were added and cells were washed (either in standard or proline-free medium). Multiple transfections were pooled, if applicable. Cells were adjusted to 2e5 viable cells/ml and 10 ml were transferred to T-25 flasks. Reference cell populations were selected using 10 µg/ml Puromycin in CD-Fusion medium. For P5CS-based selection, EX-CELL CD CHO Fusion medium (custom-made, SAFC) containing 6 mM GlutaMAX without proline and without ornithine was used ("proline-free" or "CD-Fusion w/o Pro" medium), with or without additional selection pressure.
(§2) Cell viability of the different populations was monitored over time. As soon as cell populations appeared to recover from selection pressure, cells were transferred to Shake Flask or TubeSpins for expansion in suspension under shaking conditions. Subsequently, stable cell populations transfected with IgG were seeded at 2e5 viable cells/ml for batch fermentation without selection pressure (i.e. standard CD-Fusion medium containing proline and no other selective agents). The cells were cultivated for 5-10 days, viable cell densities and productivity were monitored over time. IgG titers were determined using Poros A-HPLC method. Typically, final batch titers were recorded at a time point at which majority of cultures had around 70% viability. Stable cell populations transfected with GFP vector were subjected to analysis by flow cytometry using Guava easyCyte 8HT Benchtop Flow Cytometer (Millipore). 250 µl of cell culture were transferred to 96 MTP and washed with PBS. Dead cells were excluded from analysis using propidium iodide (PI). […]

[2] = tested on: CHO-K1 cells; test: Batch fermentation in shake flasks of human IgG1 expressing stable cell populations (Poros A-HPLC titer, viable cell density, viability); format: cell-based, Chinese hamster; details: human IgG1, pJF1577, non-selecting conditions
Method: as §1, §2

[3] = tested on: CHO-K1 cells; test: Flow cytometric analysis of GFP expression (MFI, high fluorescing cells) in stably selected cell populations; format: cell-based, Chinese hamster
Method: as §1, §2

[4] = tested on: CHO-S cells
Method: CHO-S cells (Thermo Fisher Scientific, A1155701) were passaged according to the manufacturer's recommendations at 37 °C and 5% CO2 in CD-CHO medium (Thermo Fisher Scientific , 10743029) containing 8 mM GlutaMAX. […] Viable cell densities and viabilities were recorded daily.

[5] = day 20 post-transfection, pJF1556, CD-Fusion w/o Pro + 0.1 mM A2C
[6] = day 20 post-transfection, pJF1556, CD-Fusion w/o Pro + 0.1 mM A2C + 10 µg/ml Puromycin
[7] = day 20 post-transfection, pJF1556, CD-Fusion w/o Pro + 0.25 mM A2C
[8] = Day 1, Proline-free Medium + 0,5mM L-Prolin
[9] = Day 1, Proline-free Medium + 0,25mM L-Prolin
[10] = Day 1, Proline-free Medium + 1,0mM L-Prolin
[11] = Day 1, Proline-free Medium + 2,5mM L-Prolin
[12] = Day 2, Proline-free Medium + 0,5mM L-Prolin
[13] = Day 2, Proline-free Medium + 0,25mM L-Prolin
[14] = Day 2, Proline-free Medium + 1,0mM L-Prolin
[15] = Day 2, Proline-free Medium + 2,5mM L-Prolin
[16] = Day 3, Proline-free Medium + 0,5mM L-Prolin
[17] = Day 3, Proline-free Medium + 0,25mM L-Prolin
[18] = Day 3, Proline-free Medium + 1,0mM L-Prolin
[19] = Day 3, Proline-free Medium + 2,5mM L-Prolin
[20] = Day 6, Proline-free Medium + 0,5mM L-Prolin
[21] = Day 6, Proline-free Medium + 0,25mM L-Prolin
[22] = Day 6, Proline-free Medium + 1,0mM L-Prolin
[23] = Day 6, Proline-free Medium + 2,5mM L-Prolin

SMILES: O=C(O)[C@@H]1CCN1 [A2C, L-Azetidine-2-carboxylic acid]
- Viability on day 13 post-transfection ([1]; MOCK, CD-Fusion w/o Pro + 0.5 mM A2C + 10 µg/ml Puromycin): 15%
- Viability on day 13 post-transfection ([1]; pJF1556, CD-Fusion w/o Pro + 0.1 mM A2C): 85%
- Viability on day 13 post-transfection ([1]; pJF1556, CD-Fusion w/o Pro + 0.1 mM A2C + 10 µg/ml Puromycin): 62%
- Viability on day 13 post-transfection ([1]; pJF1556, CD-Fusion w/o Pro + 0.25 mM A2C): 70%
- Viability on day 13 post-transfection ([1]; pJF1556, CD-Fusion w/o Pro + 0.25 mM A2C + 10 µg/ml Puromycin): 22%
- Viability on day 13 post-transfection ([1]; pJF1556, CD-Fusion w/o Pro + 0.5 mM A2C): 21%
- Viability on day 13 post-transfection ([1]; pJF1556, CD-Fusion w/o Pro + 0.5 mM A2C + 10 µg/ml Puromycin): 21%
- Batch titer day 7 ([2]; selected in CD-Fusion w/o Pro + 0.1 mM A2C + 10 µg/ml Puromycin): 82 mg/L
- Batch titer day 7 ([2]; selected in CD-Fusion w/o Pro + 0.1 mM A2C): 135 mg/L
- Batch titer day 7 ([2]; selected in CD-Fusion w/o Pro + 0.25 mM A2C + 10 µg/ml Puromycin): 145 mg/L
- Batch titer day 7 ([2]; selected in CD-Fusion w/o Pro + 0.25 mM A2C): 166 mg/L
- Batch titer day 7 ([2]; selected in CD-Fusion w/o Pro + 0.5 mM A2C + 10 µg/ml Puromycin): 34 mg/L
- Batch titer day 7 ([2]; selected in CD-Fusion w/o Pro + 0.5 mM A2C): 166 mg/L
- Frequency of high fluorescing cells [3, 5]: 7.1%
- Median Fluorescence Intensity (MFI) (yellow) [3, 5]: 5743
- Frequency of high fluorescing cells [3, 6]: 13.6%
- Median Fluorescence Intensity (MFI) (yellow) [3, 6]: 9448
- Frequency of high fluorescing cells [3, 7]: 7.1%
- Median Fluorescence Intensity (MFI) (yellow) [3, 7]: 7578

SMILES: O=C(O)[C@@H]1CCCN1 [L-Prolin, L-Proline]
- Viability [4, 8]: 98,2
- Viable Cell Conc. [4, 8]: 3,7E+05
- Viability [4, 9]: 95,6
- Viable Cell Conc. [4, 9]: 3,5E+05
- Viability [4, 10]: 100,0
- Viable Cell Conc. [4, 10]: 3,6E+05
- Viability [4, 11]: 99,3
- Viable Cell Conc. [4, 11]: 3,3E+05
- Viability [4, 12]: 99,7
- Viable Cell Conc. [4, 12]: 6,3E+05
- Viability [4, 13]: 98,1
- Viable Cell Conc. [4, 13]: 5,7E+05
- Viability [4, 14]: 99,7
- Viable Cell Conc. [4, 14]: 5,6E+05
- Viability [4, 15]: 97,5
- Viable Cell Conc. [4, 15]: 4,9E+05
- Viability [4, 16]: 99,5
- Viable Cell Conc. [4, 16]: 1,2E+06
- Viability [4, 17]: 99,6
- Viable Cell Conc. [4, 17]: 9,1E+05
- Viability [4, 18]: 99,2
- Viable Cell Conc. [4, 18]: 1,1E+06
- Viability [4, 19]: 99,8
- Viable Cell Conc. [4, 19]: 1,1E+06
- Viability [4, 20]: 99,9
- Viable Cell Conc. [4, 20]: 3,8E+06
- Viability [4, 21]: 98,2
- Viable Cell Conc. [4, 21]: 1,3E+06
- Viability [4, 22]: 99,5
- Viable Cell Conc. [4, 22]: 6,6E+06
- Viability [4, 23]: 99,7
- Viable Cell Conc. [4, 23]: 6,3E+06

SMILES: O=C(O)C1NCCS1 (stereo not shown) [Thiazolidine-2-carboxylic acid]
- Viability on day 12 post-transfection ([1]; pJF1555, CD-Fusion w/o Pro + 0.1 mM Thiazolidine-2-carboxylic acid): 87%
- Viability on day 12 post-transfection ([1]; pJF1555, CD-Fusion w/o Pro + 0.5 mM Thiazolidine-2-carboxylic acid): 78%
- Viability on day 12 post-transfection ([1]; pJF1555, CD-Fusion w/o Pro + 1 mM Thiazolidine-2-carboxylic acid): 11%
- Viability on day 12 post-transfection ([1]; pJF1555, CD-Fusion w/o Pro + 2.5 mM Thiazolidine-2-carboxylic acid): 15%
- Viability on day 12 post-transfection ([1]; pJF1555, CD-Fusion w/o Pro + 10 mM Thiazolidine-2-carboxylic acid): 16%
- concentration at which recovery kinetics were affected ([1]; pJF1555, proline-free medium): 0.5 to 1 mM
- Frequency of high fluorescing cells ([3]; day 15 post-transfection, pJF1555, CD-Fusion w/o Pro + 0.1 mM Thiazolidine-2-carboxylic acid): 4.9%
- Frequency of high fluorescing cells ([3]; day 15 post-transfection, pJF1555, CD-Fusion w/o Pro + 0.5 mM Thiazolidine-2-carboxylic acid): 2.3%
- Frequency of high fluorescing cells ([3]; day 15 post-transfection, pJF1555, CD-Fusion w/o Pro + 1 mM Thiazolidine-2-carboxylic acid): 0.0%
- Frequency of high fluorescing cells ([3]; day 15 post-transfection, pJF1555, CD-Fusion w/o Pro + 2.5 mM Thiazolidine-2-carboxylic acid): 0.0%
- Frequency of high fluorescing cells ([3]; day 15 post-transfection, pJF1555, CD-Fusion w/o Pro + 10 mM Thiazolidine-2-carboxylic acid): 0.0%

SMILES: O=C(O)[C@@H]1C[C@H](O)CN1 [cis-4-Hydroxy-L-Proline]
- Viability on day 12 post-transfection ([1]; pJF1555, CD-Fusion w/o Pro + 0.25 mM cis-4-Hydroxy-L-Proline): 89%
- Viability on day 12 post-transfection ([1]; pJF1555, CD-Fusion w/o Pro + 0.5 mM cis-4-Hydroxy-L-Proline): 88%
- Viability on day 12 post-transfection ([1]; pJF1555, CD-Fusion w/o Pro + 1 mM cis-4-Hydroxy-L-Proline): 65%
- Viability on day 12 post-transfection ([1]; pJF1555, CD-Fusion w/o Pro + 2.5 mM cis-4-Hydroxy-L-Proline): 13%
- Viability on day 12 post-transfection ([1]; pJF1555, CD-Fusion w/o Pro + 5 mM cis-4-Hydroxy-L-Proline): 13%
- Viability on day 12 post-transfection ([1]; pJF1555, CD-Fusion w/o Pro + 10 mM cis-4-Hydroxy-L-Proline): 20%
- concentration at which recovery kinetics were affected ([1]; pJF1555, proline-free medium): ≥ 1 mM
- Frequency of high fluorescing cells ([3]; day 15 post-transfection, pJF1555, CD-Fusion w/o Pro + 0.25 mM cis-4-Hydroxy-L-Proline): 3.3%
- Frequency of high fluorescing cells ([3]; day 15 post-transfection, pJF1555, CD-Fusion w/o Pro + 0.5 mM cis-4-Hydroxy-L-Proline): 1.7%
- Frequency of high fluorescing cells ([3]; day 15 post-transfection, pJF1555, CD-Fusion w/o Pro + 2.5 mM cis-4-Hydroxy-L-Proline): 1.4%
- Frequency of high fluorescing cells ([3]; day 15 post-transfection, pJF1555, CD-Fusion w/o Pro + 5 mM cis-4-Hydroxy-L-Proline): 0.0%
- Frequency of high fluorescing cells ([3]; day 15 post-transfection, pJF1555, CD-Fusion w/o Pro + 10 mM cis-4-Hydroxy-L-Proline): 0.0%

SMILES: O=C(O)[C@@H]1C[C@@H](O)CN1 [trans-4-Hydroxy-L-Proline]
- Viability on day 12 post-transfection ([1]; pJF1555, CD-Fusion w/o Pro + 5 mM trans-4-Hydroxy-L-Proline): 84%
- Viability on day 12 post-transfection ([1]; pJF1555, CD-Fusion w/o Pro + 10 mM trans-4-Hydroxy-L-Proline): 84%
- selection pressure ([1]; up to 10 mM, pJF1555, proline-free medium): no increased selection pressure observable
- Frequency of high fluorescing cells ([3]; day 15 post-transfection, pJF1555, CD-Fusion w/o Pro + 5 mM trans-4-Hydroxy-L-Proline): 2.6%
- Frequency of high fluorescing cells ([3]; day 15 post-transfection, pJF1555, CD-Fusion w/o Pro + 10 mM trans-4-Hydroxy-L-Proline): 2.6%
